{"source": "patent US20230364062A1", "about": "“METHOD OF TREATING MYELOID MALIGNANCIES” (Yeda Research and Development Co. Ltd., priority 2020, published 2023)", "key": {"[1]": {"tested_on": "AML2 SRSF2 (P95H) mutant cell line", "assay": "Cell viability assay (CellTiter-Glo), drug screen and dose response", "type": "cell-based, human", "conditions": "validation and dose response after primary screen, 48 hours", "description": "(§1) Compound Libraries: Three commercial libraries were used in the screening process: the Bioactive library (New Selleck Collection 2020, n=3727), the Kinom Set (n=187), and the Epigenetic chemical probe library (Structural Genomics Consortium, n=97).\n(§2) Cell viability assay: Compounds were dispensed in 384-well plates using an ECHO® 555 liquid handler (Labcyte) and sealed. On day of experiment, the concentrations of isogenic and respective wildtype cell lines were counted using a Countess™ II FL (Invtrogen™) and re-suspended at 40,000 cell/ml. 50 μL of medium was dispensed using a Multidrop™ Combi Reagent Dispenser (Thermo Fisher), bringing the total number of cells in each well to 2000. Cells were incubated for 48 hours. On day of measurement, plates were centrifuged and supernatant was removed using a Washer/Dispenser II (GNF Systems). A Washer/Dispenser II was then used to dispense CellTiter-Glo® (G7572, Promega) as per the manufacturer's instructions. The luminescence signal was then measured using a PHERAstar® FSX (BMG Labtech) and results were analyzed using Genedata Screener®. The viability of treated cells was normalized to a vehicle control, contained on each plate.\n(§3) Next, a sensitivity screening of […] chemical compounds from three commercial libraries: the Bioactive collection (New Selleck Collection 2020, n=3727), the Kinom Set (n=187), and the Epigenetic chemical probe library (Structural Genomics Consortium, n=97) was carried out on the isogenic cell lines. Following a primary screen, compounds with higher cytotoxic efficacy in the mutant versus WT cells were chosen for further validation and dose response analysis. Both mutant MOLM14 and AML2 cell lines responded to various ROCK inhibitors (ROCKi), including, GSK429286A, GSK180736A, Y-39983 and specifically to RKI-1447."}, "[2]": {"tested_on": "MOLM14 SRSF2 (P95H) mutant cell line", "assay": "Cell viability assay (CellTiter-Glo), drug screen and dose response", "type": "cell-based, human", "conditions": "validation and dose response after primary screen, 48 hours", "description": "as §1, §2, §3"}, "[3]": {"tested_on": "MOLM14 SRSF2 mutant cell line", "assay": "Cell cycle analysis after RKI-1447", "type": "cell-based, human"}, "[4]": {"tested_on": "SRSF2 mutant cells", "assay": "Nuclear morphology and microtubule structure by confocal microscopy", "type": "cell-based, human", "conditions": "SRSF2 mutant cells following RKI-1447 treatment", "description": "The nuclear morphology and microtubule structure of SRSF2 mutant cells was examined by confocal microscopy following RKI-1447 treatment. […] The surface area of the nucleus of mutant cells was considerably bigger than that of WT cells, and the sphericity was reduced (FIGS. 5B-D)."}, "[5]": {"tested_on": "SRSF2 mutated AML", "assay": "AML-PDX models with SRSF2 mutations in NSG mice", "type": "in vivo", "conditions": "two AML-PDX samples; 3 weeks of treatment from day 35; versus carrier control", "experimental": "To evaluate whether SRSF2 mutated AML is sensitive to RKI-1447, the present inventors studied its effect in vivo with cell line and patient-derived xenograft model of AML. […] Two AML-PDX models with SRSF2 mutations were established that recapitulate the disease in vivo. NSG mice (n=5-10/sample) were injected with one to five million CD3− cells from two patients with SRSF2 mutated AML through femur. On day 35 the animals were randomized to RKI-1447 or a carrier control. Following 3 weeks of treatment week, engraftment of AML cells in BM was evaluated using flow cytometry. Both lymphoid (CD19+ B cells) and myeloid lineages (CD45dimCD33+) are detected, but dominantly are myeloid graft, in our AML-PDX models. […] To determine the grafts origin from srsf2 mutated LSC/ pre-leukaemic HSCs, human cells (CD45+) were isolated from the total BM cells and amplicon sequence of SRSF2 was performed."}, "[6]": {"tested_on": "MOLM14 SRSF2 mutant cells", "assay": "MOLM14 cell line xenograft model of AML in NSG mice", "type": "in vivo", "conditions": "NSG mice transplanted with MOLM14 cell line model; compared to the control"}, "[7]": {"tested_on": "isogenic SRSF2 mutant and wild-type cell lines", "assay": "RNA sequencing and proteomics with pre ranked GSEA before and after RKI-1447", "type": "cell-based, human", "conditions": "both mutant and wild-type cells after exposure to RKI-1447", "description": "(§4) Rho-associated protein kinases (ROCKs or Rho kinases) are key regulators of the actin cytoskeleton and are required for separating cells' duplicated genetic material during cell division to ensure proper partitioning of DNA in to daughter cells. Actin is also linked to RNA polymerase function and associated with many heterogeneous nuclear ribonucleoproteins, and may thus act to affect pre-mRNA processing and regulate transcription. Given this knowledge of ROCKs and actin, it was hypothesized that disrupting the function of ROCKs will result in cell cycle and RNA splicing alteration. In order to test this hypothesis, RNA sequencing and proteomics were performed on isogenic lines prior to and following exposure to RKI-1447. […] One of the significant up regulated protein is CDC20. CDC20 is an activator of anaphase-promoting complex/cyclosome (APC/C), and APC/Cdc 20 activity is critical for metaphase/anaphase transition."}, "[8]": {"tested_on": "MOLM14 wild type cell line", "assay": "Cell cycle analysis after RKI-1447", "type": "cell-based, human", "conditions": "0.5 μM RKI-1447 compared to untreated control", "description": "as §4"}, "[9]": {"conditions": "0.5 μM RKI-1447 compared to untreated control, MOLM14 SRSF2 mutant"}}}
{"compound": "CC1=C(C(=O)Nc2ccc3[nH]ncc3c2)C(c2ccc(F)cc2)NC(=O)N1", "note": "(stereo not drawn) [GSK180736A]", "values": [{"measurement": "response of mutant cell line to ROCK inhibitor (cytotoxic efficacy mutant versus WT)", "setting": "[1]", "value": "responded"}, {"measurement": "response of mutant cell line to ROCK inhibitor (cytotoxic efficacy mutant versus WT)", "setting": "[2]", "value": "responded"}]}
{"compound": "CC1=C(C(=O)Nc2cc3cn[nH]c3cc2F)C(c2ccc(C(F)(F)F)cc2)CC(=O)N1", "note": "(stereo not drawn) [GSK429286A]", "values": [{"measurement": "response of mutant cell line to ROCK inhibitor (cytotoxic efficacy mutant versus WT)", "setting": "[1]", "value": "responded"}, {"measurement": "response of mutant cell line to ROCK inhibitor (cytotoxic efficacy mutant versus WT)", "setting": "[2]", "value": "responded"}]}
{"compound": "O=C(NCc1cccc(O)c1)Nc1nc(-c2ccncc2)cs1", "note": "[RKI-1447]", "values": [{"measurement": "cell cycle difference in MOLM14 SRSF2 mutant relative to wild type", "setting": "[3]; 0.5 μM RKI-1447, P<0.01", "value": "more pronounced"}, {"measurement": "percentage of G0/G1 phase cells", "setting": "[3]; [9]", "value": "decrease in the percentage"}, {"measurement": "percentage of G2/M and S phase cells", "setting": "[3]; [9]", "value": "higher percentage"}, {"measurement": "apoptosis", "setting": "[4]", "value": "apoptosis"}, {"measurement": "nuclear morphology", "setting": "[4]", "value": "nucleus invagination and deformations"}, {"measurement": "engraftment rate of AML cells in BM (flow cytometry)", "setting": "[5]", "value": "significant lower engraftment rate"}, {"measurement": "engraftment (number of CD45+ cells)", "setting": "[6]", "value": "significant decrease of engraftment"}, {"measurement": "response of mutant cell line to ROCK inhibitor (cytotoxic efficacy mutant versus WT)", "setting": "[1]", "value": "responded"}, {"measurement": "response of mutant cell line to ROCK inhibitor (cytotoxic efficacy mutant versus WT)", "setting": "[2]", "value": "responded"}, {"measurement": "pre ranked GSEA, regulated pathways", "setting": "[7]", "value": "cell cycle is one of the most significantly up-regulated pathways"}, {"measurement": "percentage of G0/G1 phase cells", "setting": "[8]", "value": "decrease in the percentage"}, {"measurement": "percentage of G2/M and S phase cells", "setting": "[8]", "value": "higher percentage"}]}
{"compound": "C[C@@H](N)c1ccc(C(=O)Nc2ccnc3[nH]ccc23)cc1", "note": "[Y-39983]", "values": [{"measurement": "response of mutant cell line to ROCK inhibitor (cytotoxic efficacy mutant versus WT)", "setting": "[1]", "value": "responded"}, {"measurement": "response of mutant cell line to ROCK inhibitor (cytotoxic efficacy mutant versus WT)", "setting": "[2]", "value": "responded"}]}
